The target of experiment [1] is T1, murine Syk tyrosine kinase protein (GST:Syk 6-242) (Mus musculus, UniProt P48025).
T1 construct: made in house
Kind of experiment: ADA method: displacement of the binding of scFv G4G11 with Syk (ELISA). The note with it: read-out: In vit. inhib.: mean inhibition % of the binding of scFv G4G11 with Syk in the ADA method. The text has this: The term “percentage of inhibition” of the binding of an antibody or antibody fragment with Syk protein, particularly refers to the ratio […], where A consists of the intensity of a signal proportional to the quantity of an antibody or antibody fragment bound with Syk protein in the absence of a molecule according to the invention and B the intensity of the same signal in the presence of a molecule according to the invention under the same conditions. […] This test may be performed for example according to the protocol described in example 3-2) hereinafter.
The inventors developed the ADA (Antigen Displacement Assay) method to identify small molecules capable of displacing the association with scFv G4G11 with Syk. […] To understand the mode of action of C-13, the inventors firstly identified the binding site of G4G11 using the SPOT method^16. An epitope located on the N-terminal SH2 domain of Syk, comprising amino acids 65-74 and 100% preserved in mouse, rat and human sequences, was identified.
The ADA method was then applied to each of these […] molecules to measure the ability thereof to inhibit the binding of scFv G4G11 with Syk.
(§1) • 1) Chemical products and antibodies. A chemical bank of 3000 molecules (a varied subset) was acquired from ChemBridge, Inc. (San Diego, Calif.). Stocks of solutions of small molecules were prepared at a rate of 10 mM in DMSO (dimethylsulphoxide), except for C-13 (methyl 2-{5-[(3-benzyl-4-oxo-2-thioxo-1,3-thiazolidin-5-ylidene)methyl]-2-furyl}benzoate, ChemBridge ID No. 6197026) prepared in DMF (dimethylformamide). Unless specified otherwise, all the reagents were supplied by Sigma. Dinitrophenyl (DNP) hapten was acquired from Calbiochem. Sepharose GammaBind G and all the secondary antibodies were supplied by GE Health Amersham Biosciences. The anti-Syk, anti-Lyn, anti-Btk, anti-PLC-γ1, anti-PLC-γ2, anti-LAT, anti-SLP-76, anti-p38, anti-JNK, anti-Vav, anti-Akt1 and 9E10 antibodies conjugated with HRP were acquired from Santa Cruz Biotechnology. The anti-phospho-p44/42 MAP Kinase, anti-p44/42 MAP Kinase, anti-phospho-p38, anti-phospho-JNK, anti-phospho-Akt1 antibodies were acquired from Cell Signaling. The anti-phospho-LAT and anti-phospho-PLC-γ1 antibodies were supplied by Biosource and the anti-phospho-SLP-76 antibodies by BD Pharmingen. The 4G10 anti-phosphotyrosine monoclonal antibody was acquired from Upstate Biotechnology. • 2) ADA method: ELISA type high-speed molecule screening test, based on antibody displacement (WO 2005106481). The recombinant fusion protein GST:Syk 6-242^8 comprising the residues 6 to 242 of murine Syk tyrosine kinase protein illustrated in FIG. 8B (SEQ ID No. 4) was immobilised on an ELISA plate at a final concentration of 10 μg ml^−1. For the screening of the chemical molecule bank, the small molecules, diluted in PBS at a final concentration of 10 μM were added to the wells for one hour at ambient temperature, before adding the fragment scFv G4G11 at a final concentration of 100 nM for an additional hour. The binding of G4G11 with Syk was assessed by adding the 9E10 monoclonal antibody conjugated with HRP detecting the amino acid sequence EQKLISEEDLN of human c-myc protein located at the C-terminal end of the scFv fragment. To generate Syk mutants, targeted mutagenesis was used on GST:Syk 6-242 protein and the binding of G4G11 with the mutants was assessed in the presence of 5 μM of C-13. • 3) Cells, culture conditions and functional tests. Anti-DNP 2682-I mouse monoclonal antibody was used as the culture supernatant of hybridomas containing 1 μg/ml of IgE. Femoral bone marrow cells were sampled and cultured in Opti-MEM medium (Gibco) supplemented with 10% foetal calf serum and 4% X63 transfectant supernatant secreting murine IL-3. RBL-2H3 (ATCC) leukaemic rat basophil cells were maintained in a single-layer culture in RPMI 1640 medium supplemented with 10% foetal calf serum (Gibco). […]

A further experiment relates to RBL-2H3 cells. As to the kind of experiment: cells. The class given is cell-based, rat. The settings on record: Rattus norvegicus. How it is done: These 87 molecules were also tested in vitro to assess the ability thereof to inhibit RBL-2H3 cell degranulation (see table 1).
as §1, with “(Gibco). Measurements of β-hexosaminidase released by the RBL-2H3 cells were performed as described previously^7, except that, after 12-16 hours of incubation with anti-DNP IgE (0.5 μg/ml), the cells were incubated for 90 min at 37° C. in RPMI medium supplemented with the specified concentrations of C-13 or DMF (0.25%). The cells were stimulated for 45 min with DNP-BSA (50 ng ml^−1) or ionomycin (1.5 μM). The BMMC cells were incubated for one hour at 37° C. with anti-DNP IgE (100 ng/ml). They were then incubated with C-13 (3 μM) or DMF (0.3%) for 3 hours at 37° C., and stimulated with varied concentrations of DNP-BSA. The level of β-hexosaminidase released was measured 10 min later and the TNF-α titration was performed by means of a cytotoxicity test on L929 cells as described previously^10, 3 hours after stimulation. The results illustrated in FIG. 3 are representative of three independent experiments. • 4) Immunoprecipitations, in vitro kinase assays and immunodetection.” for “(Gibco).”

The mark [2] stands for this setting: small molecules at 10 μM, scFv G4G11 100 nM.
Setting [3] is: RBL-2H3 cells, read-out: Degran. IC50: concentration inhibiting mast cell degranulation by 50%.

≈ marks a conversion by molar mass, not a printed value. Where two headings read alike, the source gives them in different places.

`Cc1cc(C)cc(N(CC(=O)N2CCN(Cc3ccccc3)CC2)S(=O)(=O)c2ccccc2)c1` [Molecule 40, N-[2-(4-benzyl-1-piperazinyl)-2-oxoethyl]-N-(3,5-dimethylphenyl)benzenesulphonamide]: the inhibition at 10 µM in experiment [1] was found to be 49.5%. Further, the IC50 with RBL-2H3 cells (RBL-2H3, read-out: Degran. IC50: concentration inhibiting mast cell degranulation by 50%) is over 10 µg/mL.

Turning to `Cc1ccc(C(=O)C(C)OC(=O)c2ccc3c(c2)C(=O)C(c2ccc(C)c(Cl)c2)C3=O)cc1` (centres unmarked) [Molecule 41], the inhibition at 10 µM in experiment [1] (setting [2]) amounted to 49.5%. Besides, in the experiment with RBL-2H3 cells (setting [3]), the IC50 is over 10 µg/mL.

Regarding `COc1ccc(C)cc1NC(=O)CN(c1ccc(C)cc1)S(=O)(=O)c1ccc(OC)c(OC)c1` [Molecule 42], in experiment [1] (setting [2]), the inhibition at 10 µM amounted to 49%. In addition, the IC50 in the experiment on RBL-2H3 cells (setting [3]) is over 10 µg/mL.

Regarding `COc1ccc(OC)c(C2C(C(=O)c3ccc(F)cc3)=C(O)C(=O)N2CCCN2CCOCC2)c1` (centres unmarked) [Molecule 43, 5-(2,5-dimethoxyphenyl)-4-(4-fluorobenzoyl)-3-hydroxy-1-[3-(4-morpholinyl)propyl]-1,5-dihydro-2H-pyrrol-2-one], in experiment [1] (setting [2]), the inhibition at 10 µM worked out at 48.5%. Further, the IC50 with RBL-2H3 cells (setting [3]) is over 10 µg/mL.

With `O=C(C1=C(O)C(=O)N(CCCN2CCOCC2)C1c1ccccc1F)c1ccc(Cl)cc1` (centres unmarked) [Molecule 44, 4-(4-chlorobenzoyl)-5-(2-fluorophenyl)-3-hydroxy-1-[3-(4-morpholinyl)propyl]-1,5-dihydro-2H-pyrrol-2-one], in experiment [1] (setting [2]), the inhibition at 10 µM is 48.5%. The IC50 in the experiment with RBL-2H3 cells (setting [3]) was over 10 µg/mL.

In the case of `CC(C)c1ccc(C2C(C(=O)c3ccc(F)cc3)=C(O)C(=O)N2CCN2CCOCC2)cc1` (centres unmarked) [Molecule 45, 4-(4-fluorobenzoyl)-3-hydroxy-5-(4-isopropylphenyl)-1-[2-(4-morpholinyl)ethyl]-1,5-dihydro-2H-pyrrol-2-one], the inhibition at 10 µM in experiment [1] (setting [2]) turned out to be 48.5%. In addition, the IC50 in the experiment on RBL-2H3 cells (setting [3]) is over 10 µg/mL.

As to `Cn1c(SCC(=O)NCC2CCCO2)nnc1-c1ccc(NC(=O)c2ccccc2Cl)cc1` (centres unmarked) [Molecule 47], the inhibition at 10 µM in experiment [1] (setting [2]) is 47.5%. Also, the IC50 in the experiment on RBL-2H3 cells (setting [3]) is over 10 µg/mL.

Consider `Cc1ccc(S(=O)(=O)N(CC(=O)N2CCN(Cc3ccccc3)CC2)c2ccc(C)c(C)c2)cc1` [Molecule 48, N-[2-(4-benzyl-1-piperazinyl)-2-oxoethyl]-N-(3,4-dimethylphenyl)-4-methylbenzenesulphonamide], for which the inhibition at 10 µM in experiment [1] (setting [2]) was determined as 47%. Further, in the experiment on RBL-2H3 cells (setting [3]), the IC50 was over 10 µg/mL.

Take `CN(C)CCCN1C(=O)C(O)=C(C(=O)c2ccc(S(=O)(=O)N(C)C)cc2)C1c1ccc(Cl)c(Cl)c1` (centres unmarked) [Molecule 50, 4-({2-(3,4-dichlorophenyl)-1-[3-(dimethylamino)propyl]-4-hydroxy-5-oxo-2,5-dihydro-1H-pyrrol-3-yl}carbonyl)-N,N-dimethylbenzenesulphonamide]: in experiment [1] (setting [2]), the inhibition at 10 µM was 46.5%. The IC50 with RBL-2H3 cells (setting [3]) was over 10 µg/mL.

On to `CCN(CC)CCCN1C(=O)C(O)=C(C(=O)c2ccc3c(c2)OCO3)C1c1cccnc1` (centres unmarked) [Molecule 51, 4-(1,3-benzodioxol-5-ylcarbonyl)-1-[3-(diethylamino)propyl]-3-hydroxy-5-(3-pyridinyl)-1,5-dihydro-2H-pyrrol-2-one], for which the inhibition at 10 µM in experiment [1] (setting [2]) came out at 46%. In the experiment on RBL-2H3 cells (setting [3]), the IC50 was over 10 µg/mL.

On to `COc1cc(C2C(C(=O)c3ccc(C)o3)=C(O)C(=O)N2CCN(C)C)cc(OC)c1OC` (centres unmarked) [Molecule 52, 1-[2-(dimethylamino)ethyl]-3-hydroxy-4-(5-methyl-2-furoyl)-5-(3,4,5-trimethoxyphenyl)-1,5-dihydro-2H-pyrrol-2-one], for which the inhibition at 10 µM in experiment [1] (setting [2]) stood at 46%. In the experiment on RBL-2H3 cells (setting [3]), the IC50 is over 10 µg/mL.

`COc1cccc(C2C(C(=O)c3ccc(C)o3)=C(O)C(=O)N2CCN2CCOCC2)c1` (centres unmarked) [Molecule 53, 3-hydroxy-5-(3-methoxyphenyl)-4-(5-methyl-2-furoyl)-1-[2-(4-morpholinyl)ethyl]-1,5-dihydro-2H-pyrrol-2-one]: in experiment [1] (setting [2]), the inhibition at 10 µM is 45.5%. In addition, the IC50 in the experiment on RBL-2H3 cells (setting [3]) was over 10 µg/mL.

Take `CCOC(=O)C1=C(c2ccccc2)NC(SCC(=O)Nc2cccc(OC)c2)=C(C#N)C1c1ccco1` (centres unmarked) [Molecule 55, ethyl 5-cyano-4-(2-furyl)-6-({2-[(3-methoxyphenyl)amino]-2-oxoethyl}thio)-2-phenyl-1,4-dihydro-3-pyridine carboxylate]: the inhibition at 10 µM in experiment [1] (setting [2]) was determined as 42.5%. Further, the IC50 in the experiment on RBL-2H3 cells (setting [3]) is about 5 µg/mL (≈ 9.7 µM).

By inhibition is commonly meant the drop in the measured response relative to a control, in per cent.
